We go through 1 cell line from the supplement of paper PMC10307832.

Assay in all cases: relative viability (nuclei count vs DMSO), 5 days (fraction); higher = more cells survive
Compound in assay [1]: O=C(Nc1cc(C(F)(F)F)cc(C(F)(F)F)c1)c1cc(Cl)ccc1O [IMD-0354] + Nc1nc2[nH]cc(CCc3ccc(C(=O)N[C@@H](CCC(=O)O)C(=O)O)cc3)c2c(=O)[nH]1 [Pemetrexed] (partner 0.2 µM)
In outline: (§1)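 Relative viability equals treated-well nuclei counts divided by vehicle-well nuclei counts. Counts came from 4× images of lung cancer cell lines grown in 1536-well plates for 5 days after pin-tool dosing on the day after seeding. Dosing used one drug alone or a fixed anchor-drug dose plus five library-drug doses (not always all listed) in √10 steps, and values are medians of duplicate plates.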

Compound in assay [2]: Cc1cnc(CNC(=O)c2c(=O)c3ccc(N4CCCN(C)CC4)nc3n3c2sc2ccccc23)cn1 [CX-5461] + CS(=O)(=O)CCNCc1ccc(-c2ccc3ncnc(Nc4ccc(OCc5cccc(F)c5)c(Cl)c4)c3c2)o1 [Lapatinib] (partner 2 µM)
In outline:
as §1

Compound in assay [3]: O=C(Nc1cc(C(F)(F)F)cc(C(F)(F)F)c1)c1cc(Cl)ccc1O [IMD-0354] + CC1(C)CCC(c2ccc(Cl)cc2)=C(CN2CCN(c3ccc(C(=O)NS(=O)(=O)c4ccc(N[C@H](CCN5CCOCC5)CSc5ccccc5)c(S(=O)(=O)C(F)(F)F)c4)cc3)CC2)C1 [Navitoclax] (partner 0.5 µM)
In outline:
as §1

Compound in assay [4]: O=C(Nc1cc(C(F)(F)F)cc(C(F)(F)F)c1)c1cc(Cl)ccc1O [IMD-0354] + CS(=O)(=O)N1CCN(Cc2cc3nc(-c4cccc5[nH]ncc45)nc(N4CCOCC4)c3s2)CC1 [Pictilisib] (partner 1 µM)
In outline:
as §1

For the cell line UMC-11, the relative viability in assay [1] (first compound 0.04 µM) was 0.819; in assay [1] (first compound 0.1265 µM) it was 0.692; in assay [1] (first compound 0.4 µM) it was 0.281; in assay [1] (first compound 1.265 µM), 0.205; in assay [1] (first compound 4 µM), 0.219; in assay [2] (first compound 0.01 µM) it was 1.07. Moreover, the relative viability was 1.01 in assay [2] (first compound 0.03162 µM); 0.855 in assay [2] (first compound 0.1 µM); 0.454 in assay [2] (first compound 0.3162 µM); 0.269 in assay [2] (first compound 1 µM); 0.338 in assay [3] (first compound 0.04 µM); 0.276 in assay [3] (first compound 0.1265 µM). The relative viability in assay [3] (first compound 0.4 µM) was determined as 0.29; in assay [3] (first compound 1.265 µM), 0.112; in assay [3] (first compound 4 µM), 0.149; in assay [4] (first compound 0.04 µM), 0.939; in assay [4] (first compound 0.1265 µM) it was 0.868; in assay [4] (first compound 0.4 µM) it was 0.542. Besides, the relative viability in assay [4] (first compound 1.265 µM) turned out to be 0.187; in assay [4] (first compound 4 µM) it was 0.223.
